{
  "source": "patent US20240083857A1",
  "about": "“2-Methyl-Quinazolines” (Bayer Pharma Aktiengesellschaft, priority 2017, published 2024)",
  "data": [
    {"target": "human SOS1 (loading of human K-Ras^G12C-GDP with fluorescent GTP-analog) (Homo sapiens, UniProt Q07889)", "experiment": "Biochemical assay 3: K-Ras^G12C activation assay by hSOS1 (HTRF)", "details": "read-out: Assay 3 (KRAS-Activation by SOS no GTP) activity expressed as % inhibition at 20 μM; no GTP; at 20 μM", "excerpt": "Biochemical assay 3: K-Ras^G12C Activation Assay by hSOS1\nK-Ras is a small GTPase that can bind GDP and GTP. The guanine nucleotide exchange factor SOS catalyzes the activation of K-Ras by promoting the exchange of GDP to GTP. SOS binds to K-Ras-GDP thereby opening the GDP-binding pocket to facilitate GDP release. Rebinding of excess nucleotide leads to dissociation of the K-Ras-SOS intermediate complex leaving K-Ras loaded with the nucleotide.\nThis assay quantifies human SOS1-mediated loading of human K-Ras^G12C-GDP with a fluorescent GTP-analog. Detection of successful loading is achieved by measuring homogenous time-resolved fluorescence resonance energy transfer (HTRF) from antiGST-Terbium (FRET donor) bound to GST-K-RasG12C to the loaded fluorescent GTP analog (FRET-acceptor).\nThe fluorescent GTP-analog EDA-GTP-Dy647P1 (2′/3′-O-(2-Aminoethyl-carbamoyl)-guanosine-5′-triphosphate labelled with Dy647P1 (Dyomics GmbH, Germany)) was synthesized by Jena Biosciences GmbH (Germany) and supplied as a 1 mM aqueous solution.\nThe assay buffer contained 10 mM HEPES pH 7.4 (Applichem), 150 mM NaCl (Sigma), 5 mM MgCl2 (Sigma), 1 mM DTT (Thermofisher), 0.05% BSA Fraction V, pH 7.0, (ICN Biomedicals), 0.0025% (v/v) Igepal (Sigma).\nConcentrations of protein batches used were optimized to be within the linear range of the HTRF signal. A Ras working solution was prepared in assay buffer containing typically 100 nM GST-hK-RasG12C and 2 nM antiGST-Tb (Cisbio, France). A hSOS1 working solution was prepared in assay buffer containing typically 20 nM hSOS1 and 200 nM EDA-GTP-Dy647P1. An inhibitor control solution was prepared in assay buffer containing 200 nM EDA-GTP-Dy647P1 without hSOS1.\nFifty nl of a 100-fold concentrated solution of the test compound in DMSO were transferred into a black microtiter test plate (384 or 1536, Greiner Bio-One, Germany). For this, either a Hummingbird liquid handler (Digilab, MA, USA) or an Echo acoustic system (Labcyte, CA, USA) was used.\nAll steps of the assay were performed at 20° C. A volume of 2.5 μl of the Ras working solution was added to all wells of the test plate using a Multidrop dispenser (Thermo Labsystems). After 10 min preincubation, 2.5 μl of the hSOS1 working solution were added to all wells except for those wells at the side of the test plate that were subsequently filled with 2.5 μl of the inhibitor control solution. After 30 min incubation the fluorescence was measured with a Pherastar (BMG, Germany) using the HTRF module (excitation 337 nm, emission 1: 620 nm, emission 2: 665 nm).\nIC50 values were calculated by 4-Parameter fitting using a commercial software package (Genedata Screener, Switzerland).", "units": {"inhibition at 20 µM": "%"}, "values": [
      {"smiles": "COc1cc2nc(C)nc(N[C@@H](C)c3ccc(-c4cncnc4)s3)c2cc1OC", "note": "(stereo in doubt) [Example 42, 6,7-dimethoxy-2-methyl-N-{1-[5-(pyrimidin-5-yl)thiophen-2-yl]ethyl}quinazolin-4-amine]", "inhibition at 20 µM": 48},
      {"smiles": "COCc1ccccc1-c1ccc([C@H](C)Nc2nc(C)nc3cc(OC)c(OC)cc23)s1", "note": "(stereo in doubt) [Example 50, 6,7-dimethoxy-N-[1-{5-[2-(methoxymethyl)phenyl]thiophen-2-yl}ethyl]-2-methylquinazolin-4-amine]", "inhibition at 20 µM": 23},
      {"smiles": "COc1cc2nc(C)nc(N[C@@H](C)c3ccc(-c4cccc(C(=O)N(C)C)c4)s3)c2cc1OC", "note": "(stereo in doubt) [Example 51, 3-(5-{1-[(6,7-dimethoxy-2-methylquinazolin-4-yl)amino]ethyl}thiophen-2-yl)-N,N-dimethylbenzamide]", "inhibition at 20 µM": 52},
      {"smiles": "COc1cc2nc(C)nc(N[C@@H](C)c3ccc(-c4ccc(CO)s4)s3)c2cc1OC", "note": "(stereo in doubt) [Example 52, (5′-{1-[(6,7-dimethoxy-2-methylquinazolin-4-yl)amino]ethyl}-2,2′-bithiophen-5-yl)methanol]", "inhibition at 20 µM": 43},
      {"smiles": "COc1cc2nc(C)nc(N[C@@H](C)c3ccc(-c4ccc(-c5nnc(C)o5)cc4)s3)c2cc1OC", "note": "(stereo in doubt) [Example 128, 6,7-dimethoxy-2-methyl-N-[1-{5-[4-(5-methyl-1,3,4-oxadiazol-2-yl)phenyl]thiophen-2-yl}ethyl]quinazolin-4-amine]", "inhibition at 20 µM": 16},
      {"smiles": "COc1cc2nc(C)nc(N[C@@H](C)c3ccc(-c4ccc(CNC(C)=O)cc4)s3)c2cc1OC", "note": "(stereo in doubt) [Example 138, N-[4-(5-{1-[(6,7-dimethoxy-2-methylquinazolin-4-yl)amino]ethyl}thiophen-2-yl)benzyl)acetamide]", "inhibition at 20 µM": 40},
      {"smiles": "COc1cc2nc(C)nc(N[C@@H](C)c3ccc(-c4cccc(CNS(C)(=O)=O)c4)s3)c2cc1OC", "note": "(stereo in doubt) [Example 139, N-[3-(5-{1-[(6,7-dimethoxy-2-methylquinazolin-4-yl)amino]ethyl}thiophen-2-yl)benzyl]methanesulfonamide]", "inhibition at 20 µM": 41},
      {"smiles": "COc1cc2nc(C)nc(N[C@@H](C)c3ccc(-c4ccc(CNS(C)(=O)=O)cc4)s3)c2cc1OC", "note": "(stereo in doubt) [Example 140, N-[4-(5-{1-[(6,7-dimethoxy-2-methylquinazolin-4-yl)amino]ethyl}thiophen-2-yl)benzyl]methanesulfonamide]", "inhibition at 20 µM": 33},
      {"smiles": "COc1cc2nc(C)nc(N[C@@H](C)c3ccc(-c4ccc(S(C)(=O)=O)cc4)s3)c2cc1OC", "note": "(stereo in doubt) [Example 149, 6,7-dimethoxy-2-methyl-N-[1-{5-[4-(methylsulfonyl)phenyl]thiophen-2-yl}ethyl]quinazolin-4-amine]", "inhibition at 20 µM": 17},
      {"smiles": "COc1cc2nc(C)nc(N[C@@H](C)c3ccc(-c4cccc(NS(C)(=O)=O)c4)s3)c2cc1OC", "note": "(stereo in doubt) [Example 165, N-[3-(5-{1-[(6,7-dimethoxy-2-methylquinazolin-4-yl)amino]ethyl}thiophen-2-yl)phenyl]methanesulfonamide]", "inhibition at 20 µM": 32},
      {"smiles": "COc1cc2nc(C)nc(N[C@@H](C)c3ccc(-c4cccc(S(C)(=O)=O)c4)s3)c2cc1OC", "note": "(stereo in doubt) [Example 173, 6,7-dimethoxy-2-methyl-N-[1-{5-[3-(methylsulfonyl)phenyl]thiophen-2-yl}ethyl]quinazolin-4-amine]", "inhibition at 20 µM": 48},
      {"smiles": "COc1cc2nc(C)nc(N[C@@H](C)c3ccc(-c4ccc(C(=O)N(C)C)cc4)s3)c2cc1OC", "note": "(stereo in doubt) [Example 176, 4-(5-{1-[(6,7-dimethoxy-2-methylquinazolin-4-yl)amino]ethyl}thiophen-2-yl)-N,N-dimethylbenzamide]", "inhibition at 20 µM": 42}
    ]}
  ]
}
